Source: BindingDB's records for doi:10.3109/14756366.2010.548330 (Metropolitan University-Xochimilco, 2011)

molecular target: T1, cDNA, FLJ78895, highly similar to 3-oxo-5-alpha-steroid 4-dehydrogenase 1 (Homo sapiens, UniProt B7Z4L2); test: 5α-Reductase Activity Assay; conditions: pH 6.5; 37 °C
T1 sequence (B7Z4L2 whole entry): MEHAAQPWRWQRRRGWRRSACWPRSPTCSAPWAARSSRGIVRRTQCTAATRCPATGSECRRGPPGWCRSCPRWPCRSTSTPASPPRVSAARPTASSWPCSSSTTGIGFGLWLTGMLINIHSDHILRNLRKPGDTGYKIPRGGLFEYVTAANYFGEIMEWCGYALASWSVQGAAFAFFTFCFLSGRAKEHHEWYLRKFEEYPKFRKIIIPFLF
Protocol: The reaction mixtures contained a final volume of 1 mL, 1 mM DTT, sodium phosphate buffer 40 mM, at pH 6.5, 2 mM, NADPH, 2 nM [1,2,6,7-3H]T or [1,2,3,7-3H(N)] 4-dione and the prostatic enzyme fractions. The amount of prostatic enzyme fractions was determined to adjust the rate of conversion of T to DHT or 4-dione to 5α-dione to around 28%. T, DHT, unlabeled 4-dione or 5α-dione concentrationswere adjusted to 25-250 nM in the incubating medium, by adding one of the following reagents cold T, DHT, unlabeled 4-dione or 5α-dione. The reactions in duplicate were started when added to the enzymatic fraction (400 μg protein in a volume of 80 μL) incubated at 37°C for 60 min13 and stopped by mixing with 1 mL ofdichloromethane. Incubation without tissue was used as a control. All reactions were carried out in two different times by duplicate.

IC50 [nM] | Structure (SMILES)
50 | CCc1ccc(C(=O)O[C@]2(C(C)=O)CCC3C4CCC5=C(Br)C(=O)CCC5(C)C4CCC32C)cc1 (some centres not stated) [4-Bromo-3,20-dioxopregn-4-ene-17-yl-4-ethylbenzoate (8b)]
1.6 | CC(=O)[C@@]1(O)CCC2C3CCC4=C(Br)C(=O)CCC4(C)C3CCC21C (stereo partly drawn) [4-Bromo-17α-hydroxypregn-4-ene-3,20-dione (7b)]

More lines, now with the values behind:

Structure (SMILES) | IC50 [nM]
CC(=O)O[C@]1(C(C)=O)CCC2C3CCC4=CC(=O)CCC4(C)C3CCC21C (some centres not stated) [3,20-Dioxopregn-4-ene-17-yl acetate (4)] | 500
CCc1ccc(C(=O)O[C@]2(C(C)=O)CCC3C4CCC5=C(Cl)C(=O)CCC5(C)C4CCC32C)cc1 (some centres not stated) [4-Chloro-3,20-dioxopregn-4-ene-17-yl-4-ethylbenzoate (8a)] | 73
CC(=O)[C@@]1(O)CCC2C3CCC4=C(Cl)C(=O)CCC4(C)C3CCC21C (stereo partly drawn) [4-Chloro-17α-hydroxypregn-4-ene-3,20-dione (7a)] | 63
CC(C)(C)NC(=O)[C@H]1CC[C@H]2[C@@H]3CC[C@H]4NC(=O)C=C[C@]4(C)[C@H]3CC[C@]12C [4a,6a-Dimethyl-2-oxo-2,4a,4b,5,6,6a,7,8,9,9a,9b,10,11,11a-tetradecahydro-1H-indeno[5,4-f]quinoline-7-carboxylic acid tert-butylamide] | 1.3
CC(=O)[C@@]1(O)CCC2C3CCC4=CC(=O)CCC4(C)C3CCC21C (stereo partly drawn) [17α-Hydroxypregn-4-ene-3,20-dione (5)] | 2
